Test [1] relates to NMRI mice. In words: Cantharidin-induced pinnal swelling in mice (irritant contact dermatitis, 2.1.1.). The settings on record: epicutaneous, pinnal weight. Format: in vivo. On the procedure: Skin irritation with arachidonic acid or cantharidin is often used to experimentally induce inflammation in order to evaluate the anti-inflammatory activity of a compound [see e.g. Inflammation 8 (1984) 134-135; 10 (1986) 205-214]. NMRI mice (8 animals per group) receive 10 µl of a 10 % solution of arachidonic acid [J.M. Young et al., J. Invest. Derm. 82 (1986) 367-371] in acetone or, respectively, 0.08 % cantharidin [K.E. Swingle et al., Arch. Int. Pharmacodyn. Ther. 254 (1981) 168-176] in acetone applied to the medial and lateral surface of the right external ear. Treatment is performed either prophylactically 30 minutes before irritation (arachidonic acid) or, respectively, either simultaneously with the application of irritant solution or therapeutically 20 minutes after irritation (cantharidin), by a single epicutaneous application of the test compound dissolved in a mixture of N,N-dimethylacetamide, acetone and alcohol (2:2:4). The evaluation of the test group is effected by comparison with a control group of animals having received on the right ear lobe only the carrier substance or the irritant solution. The animals are killed 1.5 hours (arachidonic acid) or, respectively, 17 hours (cantharidin) after application of the irritant and efficacy in assessed by determination of the differences in auricular weight. Differences in weights (D) of right (involved) and left (uninvolved) pinnae of animals treated with test compound and arachidonic acid or cantharidin (T-group) are compared with differences in mice treated with arachidonic acid only or cantharidin only (C-group). Efficacy (%) is calculated according to the equation: [formula]

Test [2] relates to human keratinocytes. In words: Inhibition of TPA-stimulated PGE₂ synthesis of human keratinocytes. It is filed as cell-based. Particulars: Keratinocyte, TPA 100 ng/ml, 24 hours, read-out: IC₅₀, inhibition of TPA-stimulated PGE₂ synthesis. How it is done:
Cultures of human keratinocytes are obtained by trypsinisation of neonatal human foreskins. The keratinocyte cultures are grown in a supplemented keratinocyte growth medium (KGM; Clonetics) using culture flasks. Passages 3-5 of 80-90 % confluent keratinocytes are resuspended in KGM at a concentration of 1x10⁵ cells/ml and 0.1 ml are plated into 96 well-microtiter plates in the presence of test compound. For the stimulation of PGE₂ release human keratinocytes or the HACAT human skin keratinocyte cell line [P. Boukamp et al., J. Cell Biol. 106 (1988) 761-771] are grown to confluence in KGM medium and stimulated with TPA (100 ng/ml) for 24 hours. Conditioned media are centrifuged and concentrations of PGE₂ are determined using a ¹²⁵I radioimmunoassay (NEN, Boston, Mass.). Each sample is assayed in duplicate.

The test system of test [3] is human neutrophils. In words: Zymosan-stimulated superoxide release. Particulars: Neutrophil, read-out: IC₅₀ for zymosan-stimulated superoxide release. Format: cell-based.
Test [4] deals with Macrophages isolated from the bone marrow of mice. In words: Zymosan-stimulated release of hydrogen peroxide. It is filed as cell-based. The settings on record: Mus musculus, Macrophage, 2 hours at 37° C, read-out: IC₅₀, zymosan-stimulated release of hydrogen peroxide. On the procedure:
The production of hydrogen peroxide is used as a measure for the respiratory burst of phagocytic cells. Macrophages 10 to 14 days old, isolated from the bone marrow of mice are incubated for 10 to 30 minutes in the presence of the test compound. Zymosan (0.5 ml) is then added as phagocytic stimulant and the mixture is incubated for a further 2 hours at 37° C in the presence of homovallinic acid (0.5 ml, 400 µM) and horse radish peroxidase (4 U/ml). The reaction is stopped by the addition of 0.25 ml 0.1 M glycine-NaOH buffer, pH 12, containing 25 mM EDTA, the samples centrifuged at 2200 g for 10 minutes, and the homovallinic acid oxidation product, as a measure of the amount of H₂O₂ produced, measured fluorimetrically.

Test [5] relates to platelets. In words: Thromboxane B₂ production in platelets. It is filed as cell-based. Particulars: Platelet, read-out: IC₅₀ for thromboxane B₂ production.
The subject of test [6] is Macrophages isolated from the bone marrow of mice. In words: Inhibition of Con A-stimulated plasminogen activator release. Format: cell-based. Particulars: Mus musculus, Macrophage; Con A 100 µg/ml, 24 hours; read-out: IC₅₀, Con A-stimulated plasminogen activator release. How it is done:
Macrophages 10 to 14 days old isolated from the bone marrow of mice are incubated in monolayers with the test compound in the presence of Concanavalin A (Con A) (100 µg/ml) as soluble stimulant. After 24 hours the cell-free medium is collected and macrophage activation is investigated biochemically as the extent of plasminogen activator release, assayed photometrically as the plasminogen-dependent amidolysis of D-Val-Phe-Lys-4-nitroanilide according to the principles described in J.C. Drapier et al., Biochemie 61 (1979) 463-471. Cell viability is assayed by measurement of lactate dehydrogenase release according to the method of H.U. Bergmeyer and E. Bernt, Methoden der Enzymatischen Analyse, 3. Auflage, Verlag Chemie (1974) 612-615, adapted as a kinetic assay using microtiter plates. All cultures are checked microscopically for qualitative morphological modification.

The test system of test [7] is 5,12-lipoxygenase. The experiment in a line: 5,12-lipoxygenase inhibition (neutrophil functions). Particulars: read-out: IC₅₀ for 5,12-lipoxygenase. Format: cell-based.
Test [8] relates to NMRI mice. In words: Allergic contact dermatitis to oxazolone (2.3.). It is filed as in vivo. The settings on record: therapeutic, test concentration 3.6 %, topical twice, pinnal weight after 24 hours, 0̸ = no activity. On the procedure: Skin irritation with arachidonic acid or cantharidin is often used to experimentally induce inflammation in order to evaluate the anti-inflammatory activity of a compound [see e.g. Inflammation 8 (1984) 134-135; 10 (1986) 205-214]. NMRI mice (8 animals per group) receive 10 µl of a 10 % solution of arachidonic acid [J.M. Young et al., J. Invest. Derm. 82 (1986) 367-371] in acetone or, respectively, 0.08 % cantharidin [K.E. Swingle et al., Arch. Int. Pharmacodyn. Ther. 254 (1981) 168-176] in acetone applied to the medial and lateral surface of the right external ear. […] The animals are killed 1.5 hours (arachidonic acid) or, respectively, 17 hours (cantharidin) after application of the irritant and efficacy in assessed by determination of the differences in auricular weight. […] Efficacy (%) is calculated according to the equation: [formula]
The inhibition of allergic contact dermatitis to oxazolone in mice is determined. […] 24 hours after skin testing treatment-related inhibition of contact dermatitis is assessed by pinnal weight as described above (see 2.1.1.). […]

Test [9] relates to mast cells. In words: Polymyxin-stimulated release from mast cells. It is filed as cell-based. The settings on record: Mast cell.
The test system of test [10] is bovine platelets. The experiment in a line: Thrombin-stimulated release from platelets. Format: cell-based. Particulars: Bos taurus, Platelet.
The subject of test [11] is neutrophils. The experiment in a line: Neutrophil exocytosis assay (FMLP-stimulated enzyme release). Format: cell-based.

pIC50: −log10 of the molar value. Where two headings read alike, the source gives them in different places. Marks after values point to notes of the source that are not given here.

For the molecule `CN(C/C=C/c1ccc(O)cc1)Cc1cccc2ccccc12` [compound of the invention, (E)-N-methyl-N-[3-(4-hydroxyphenyl)-2-propenyl]-1-naphthalene-methanamine], the “Efficacy (%)” value in test [1] (simultaneous, test concentration 1.2 %) was 26%; in test [1] (simultaneous, test concentration 3.6 %), 52** %; in test [1] (therapeutic, test concentration 1.2 %), 25%; in test [1] (therapeutic, test concentration 3.6 %), 50** %; in test [8], 42** %. The pIC50 in [2] was 5.52 to 6.00; in test [3] it was < 4.00; in test [4] it was 5.68; in [5] it was 4.00; in [6] it was 5.74; in [7] it was 4.35. The pIC50 in test [9] (read-out: IC₅₀ for polymyxin-stimulated release of histamine), in test [9] (read-out: IC₅₀ for polymyxin-stimulated release of β-glucosaminidase), in [10] (read-out: IC₅₀ for thrombin-stimulated release of N-glucosaminidase), in [10] (read-out: IC₅₀ for thrombin-stimulated release of serotonin), in [11] (read-out: IC₅₀ for FMLP-stimulated release of azurophil granule enzymes) and in [11] (read-out: IC₅₀ for FMLP-stimulated release of lysosomal enzymes) was < 4.00 each time. Also, the pIC50 in [11] (read-out: IC₅₀ for FMLP-stimulated release of specific granule enzymes) is < 4.00.

Values taken from patent publication EP0385952A2, “Use of a naphthalenmethanamino derivative as antiinflammatory agent and pharmaceutical compositions containing it” (SANDOZ AG, priority 1989, dated 1990).
